Here are results for 3 compounds from the NIST ThermoML archive (doi:10.1016/j.jct.2018.09.002).

Numbers after ± are expanded uncertainties.

The conditions of series [1]: Liquid; for vapor or sublimation pressure: Ebulliometric method (Recirculating still); for Normal boiling temperature: Distillation.
Series [2] is described as follows: refractive index (Na D-line) (dimensionless). Conditions: 101.33 kPa, Liquid, Standard Abbe refractometry.

As to `Cc1ccc(O)cc1` [4-methylphenol], the “vapor or sublimation pressure” value in series [1] (421.95 K) is 20 ± 1.5 kPa. Further, the Normal boiling temperature in series [1] was found to be 201.70 ± 2.2 °C. The refractive index in series [2] (303.15 K) is recorded as 1.5295 ± 0.0005; in series [2] (308.15 K), 1.5288 ± 0.0005.
On to `OCCNCCO` [diethanolamine], for which, in series [1] (489.08 K), the “vapor or sublimation pressure” value came out at 20 ± 1.5 kPa. In addition, the Normal boiling temperature in series [1] was 269.31 ± 2.2 °C. In addition, the refractive index in series [2] (298.15 K) is on record as 1.4762 ± 0.0005; in series [2] (303.15 K), 1.4751 ± 0.0005.
As for `Cc1cccc(O)c1` [3-methylphenol], in series [1] (422.25 K), the “vapor or sublimation pressure” value is 20 ± 1.5 kPa.

In general, vapor or sublimation pressure refers to the equilibrium pressure above the liquid or solid. Broadly, the refractive index is a measure of how strongly the sample bends light.
